# The supplement of paper PMC10307832
# Experiments:
# Assay in all cases: relative viability (nuclei count vs DMSO), 5 days (fraction); higher = more cells survive
# BEN = test system: BEN
# Method in brief: (§1)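 Relative viability equals treated-well nuclei counts divided by vehicle-well nuclei counts. Counts came from 4× images of lung cancer cell lines grown in 1536-well plates for 5 days after pin-tool dosing on the day after seeding. Dosing used one drug alone or a fixed anchor-drug dose plus five library-drug doses (not always all listed) in √10 steps, and values are medians of duplicate plates.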
# NCI-H1944 = test system: NCI-H1944
# Method in brief: as §1
# SK-MES-1 = test system: SK-MES-1
# Method in brief: as §1
# ChaGo-K-1 = test system: ChaGo-K-1
# Method in brief: as §1
# PC-3 [JPC-3] = test system: PC-3 [JPC-3]
# Method in brief: as §1
# NCI-H2342 = test system: NCI-H2342
# Method in brief: as §1
# NCI-H650 = test system: NCI-H650
# Method in brief: as §1
# NCI-H358 = test system: NCI-H358
# Method in brief: as §1
# UMC-11 = test system: UMC-11
# Method in brief: as §1
# NCI-H596 = test system: NCI-H596
# Method in brief: as §1
# NCI-H661 = test system: NCI-H661
# Method in brief: as §1
# LXF-289 = test system: LXF-289
# Method in brief: as §1
# NCI-H2087 = test system: NCI-H2087
# Method in brief: as §1
# HCC-15 = test system: HCC-15
# Method in brief: as §1
# H3255 = test system: H3255
# Method in brief: as §1
# NCI-H838 = test system: NCI-H838
# Method in brief: as §1
# LU99A = test system: LU99A
# Method in brief: as §1
# LK-2 = test system: LK-2
# Method in brief: as §1
# LC-2-ad = test system: LC-2-ad
# Method in brief: as §1
# NCI-H1666 = test system: NCI-H1666
# Method in brief: as §1
# LCLC-97TM1 = test system: LCLC-97TM1
# Method in brief: as §1
# HCC-78 = test system: HCC-78
# Method in brief: as §1
# NCI-H322M = test system: NCI-H322M
# Method in brief: as §1
# NCI-H1651 = test system: NCI-H1651
# Method in brief: as §1
smiles,measurement,setting,value
CC(C)Oc1cc(Nc2nc(N[C@@H](C)c3ccc(F)cn3)ncc2Cl)n[nH]1 [AZ23] + Nc1ncn([C@H]2C[C@H](O)[C@@H](CO)O2)c(=O)n1 [Decitabine] (partner 2 µM),relative viability,BEN; first compound 0.01 µM,0.736
same,relative viability,BEN; first compound 0.03162 µM,0.829
same,relative viability,BEN; first compound 0.3162 µM,0.667
same,relative viability,NCI-H1944; first compound 0.01 µM,0.456
same,relative viability,NCI-H1944; first compound 0.03162 µM,0.46
same,relative viability,NCI-H1944; first compound 0.3162 µM,0.433
same,relative viability,SK-MES-1; first compound 0.03162 µM,0.382
same,relative viability,SK-MES-1; first compound 0.3162 µM,0.357
same,relative viability,ChaGo-K-1; first compound 0.01 µM,0.567
same,relative viability,ChaGo-K-1; first compound 0.03162 µM,0.512
same,relative viability,ChaGo-K-1; first compound 0.3162 µM,0.519
same,relative viability,PC-3 [JPC-3]; first compound 0.01 µM,0.812
same,relative viability,PC-3 [JPC-3]; first compound 0.03162 µM,0.851
same,relative viability,PC-3 [JPC-3]; first compound 0.3162 µM,0.885
same,relative viability,NCI-H2342; first compound 0.01 µM,0.716
same,relative viability,NCI-H2342; first compound 0.03162 µM,0.778
same,relative viability,NCI-H2342; first compound 0.3162 µM,0.649
same,relative viability,NCI-H650; first compound 0.01 µM,0.355
same,relative viability,NCI-H650; first compound 0.03162 µM,0.329
same,relative viability,NCI-H650; first compound 0.3162 µM,0.336
same,relative viability,NCI-H358; first compound 0.01 µM,0.261
same,relative viability,NCI-H358; first compound 0.03162 µM,0.214
same,relative viability,NCI-H358; first compound 0.3162 µM,0.179
same,relative viability,UMC-11; first compound 0.01 µM,0.562
same,relative viability,UMC-11; first compound 0.03162 µM,0.747
same,relative viability,UMC-11; first compound 0.3162 µM,0.587
same,relative viability,NCI-H596; first compound 0.01 µM,1.17
same,relative viability,NCI-H596; first compound 0.03162 µM,1.07
same,relative viability,NCI-H596; first compound 0.3162 µM,0.955
same,relative viability,NCI-H661; first compound 0.01 µM,0.556
same,relative viability,NCI-H661; first compound 0.03162 µM,0.582
same,relative viability,NCI-H661; first compound 0.3162 µM,0.604
same,relative viability,LXF-289; first compound 0.01 µM,0.469
same,relative viability,LXF-289; first compound 0.03162 µM,0.374
same,relative viability,LXF-289; first compound 0.3162 µM,0.403
same,relative viability,NCI-H2087; first compound 0.01 µM,0.303
same,relative viability,NCI-H2087; first compound 0.03162 µM,0.265
same,relative viability,NCI-H2087; first compound 0.3162 µM,0.237
same,relative viability,HCC-15; first compound 0.01 µM,0.654
same,relative viability,HCC-15; first compound 0.03162 µM,0.596
same,relative viability,HCC-15; first compound 0.3162 µM,0.663
same,relative viability,H3255; first compound 0.01 µM,0.496
same,relative viability,H3255; first compound 0.03162 µM,0.634
same,relative viability,H3255; first compound 0.3162 µM,0.613
same,relative viability,NCI-H838; first compound 0.01 µM,0.487
same,relative viability,NCI-H838; first compound 0.03162 µM,0.506
same,relative viability,NCI-H838; first compound 0.3162 µM,0.44
same,relative viability,LU99A; first compound 0.01 µM,1.03
same,relative viability,LU99A; first compound 0.03162 µM,0.85
same,relative viability,LU99A; first compound 0.3162 µM,0.829
same,relative viability,LK-2; first compound 0.01 µM,0.337
same,relative viability,LK-2; first compound 0.03162 µM,0.306
same,relative viability,LK-2; first compound 0.3162 µM,0.272
same,relative viability,LC-2-ad; first compound 0.01 µM,1.01
same,relative viability,LC-2-ad; first compound 0.03162 µM,0.862
same,relative viability,LC-2-ad; first compound 0.3162 µM,0.782
same,relative viability,NCI-H1666; first compound 0.01 µM,0.711
same,relative viability,NCI-H1666; first compound 0.03162 µM,0.755
same,relative viability,NCI-H1666; first compound 0.3162 µM,0.672
same,relative viability,LCLC-97TM1; first compound 0.01 µM,0.273
same,relative viability,LCLC-97TM1; first compound 0.03162 µM,0.212
same,relative viability,LCLC-97TM1; first compound 0.3162 µM,0.233
same,relative viability,HCC-78; first compound 0.01 µM,0.725
same,relative viability,HCC-78; first compound 0.03162 µM,0.777
same,relative viability,HCC-78; first compound 0.3162 µM,0.728
same,relative viability,NCI-H322M; first compound 0.01 µM,0.533
same,relative viability,NCI-H322M; first compound 0.03162 µM,0.668
same,relative viability,NCI-H322M; first compound 0.3162 µM,0.7
same,relative viability,NCI-H1651; first compound 0.01 µM,0.621
same,relative viability,NCI-H1651; first compound 0.03162 µM,0.644
same,relative viability,NCI-H1651; first compound 0.3162 µM,0.618
